Laboratory results taken from patent US20220196635A1, “Fibrosis Assay” (Georgia Tech Research Corporation, priority 2020, published 2022).

Legend:
[1] = test system: normal human lung fibroblasts (NHLF); assay: mRNA quantification by qPCR in fibrin remodeling assay; format: cell-based
Procedure: RNA extraction and qPCR: Cells from 12 wells at the indicated time points were pooled together per condition and lysed with 350 μl of RLT lysis buffer. RNA was extracted using a RNeasy Mini Kit (Qiagen, #74104) and was performed according to the manufacturer's instructions. RNA sample concentration was measured using a NanoDrop OneC Spectrophotometer (Thermo Fisher Scientific). A High-Capacity RNA-to-cDNA Kit (Applied Biosystems, #4387406) was used for reverse transcription; 400 ng of RNA for each sample was mixed with 10 μl primer, 1 μl reverse transcriptase enzyme and nuclease-free water to bring the final reaction volume to 20 μl. The reaction was performed for 60 minutes at 37° C., followed by 5 minutes at 95° C. using a Veriti Thermal Cycler (Applied Biosystems). qPCR was performed using a QuantStudio 3 Real-Time PCR System (Applied Biosystems). Each reaction consisted of 1 μl cDNA, 10 μl TaqMan Fast advanced master mix (Applied Biosystems, #4444556), 1 μl primer, and 6 μl nuclease-free water. TaqMan primers (Applied Biosystems) for smooth muscle actin (ACTA2, Hs00426835_g1), plasminogen activator (PLAT, Hs00263492_m1), Plasminogen activator inhibitor-1 (SERPINE1, Hs00167155_m1), collagen type I (COL1A1, Hs00164004_m1), plasminogen activator (PLAU, Hs01547054_m1), and Ki67 (MKI67, Hs01032443_m1) were utilized. The QuantStudio 3 was programmed with a 2-minute hold at 95° C., followed by 40 cycles of 95° C. for 1 second and 60° C. for 20 seconds. Each sample was run with biological triplicates. The relative gene expression was calculated using the […], with glyceraldehyde-3-phosphate dehydrogenase as the housekeeping gene (GAPDH, Hs02786624_g1). Fold changes were normalized with respect to the time zero timepoint with no TGF-β1 stimulation and are reported as the mean with the error bars representing the minimum and maximum values.

[2] = test system: normal human lung fibroblasts (NHLF); assay: Picrosirius red histology of contracted cell-ECM spheroids (mean fluorescence intensity); format: cell-based; details: different TGF-β1 conditions and control, 12 days of culture
Procedure: Contracted cell-ECM spheroids were harvested after 9-12 days of culture. These structures were prepared for histology, stained, and imaged as previously described for cultured spheroids. Briefly, the spheroids were washed with PBS and fixed in 4% paraformaldehyde (Alfa Aesar) for 1 hour at room temperature. The structures were stained with 0.5% methylene blue solution in PBS for 10 minutes at room temperature to aid in visualization during histology. Samples were placed in a cryomold containing optimal cutting temperature (OCT) compound, and flash frozen in cooled isopentane. 10 um sections were obtained using a CryoStar NX70 cryostat (Thermo Fisher Scientific).
Upon warming to room temperature, the sections were washed with PBS, permeabilized with 0.2% Triton-X 100, and blocked for 1 hour at room temperature with 4% bovine serum albumin (BSA) (Millipore Sigma). Sections were stained for 30 min at room temperature with Sirius red (0.1% of Sirius red in saturated aqueous picric acid), as previously described for collagen bundle staining. The samples were then washed with PBS, stained with DAPI for 15 minutes at room temperature, and coverslipped. […] Fluorescence was detected using Texas Red channel settings as previously described. Mean fluorescence intensity was quantified in ImageJ as the average pixel intensity within the sections.

[3] = TGF-β1 stimulation compared to the control time series

Substance: TGF-β1: Human Recombinant TGF-β1 (Peprotech), pro-fibrotic, anti-fibrinolytic stimulus
- COL1A1 mRNA expression ([1]; TGF-β1 dose): dose-dependent increase in COL1A1
- ACTA2 (aSMA) mRNA expression ([1]; TGF-β1 dose and time course): increased expression for the highest concentration of TGF-β1
- SERPENE1 (PAI-1) mRNA expression ([1]; TGF-β1 dose and time course): significant time-dependent and dose-dependent increases in expression
- tPA (PLAT) mRNA expression [1, 3]: relative downregulation
- uPA (PLAU) mRNA expression [1, 3]: relative upregulation
- MKI67 mRNA expression (proliferation marker) ([1]; higher concentrations of TGF-β1): significantly upregulated
- mean fluorescence intensity (MFI) of picrosirius red stained sections, collagen organization [2]: relative consistency in organization of collagen networks
